How the values were obtained:
OATP1B3 = details: cited from earlier work
OAT1 = details: cited from earlier work
[1] = Pharmacokinetics (plasma, urine) of linezolid and metabolites after i.g. or i.v. linezolid in control, CCl4-induced and 5/6 Nx rats; details: for AUC(0-inf): AUC0-∞
Excerpt: The control group rats were intraperitoneally injected with equal volumes of soybean oil. […] The upper and lower poles of the left kidney were removed under urethane anesthesia (1 g/kg; administered by i.p. injection). One week later, the right kidney was completely excised. Rats in the control group underwent a sham operation ([35]). Serum creatinine (CREA), blood urea nitrogen (BUN), aspartate aminotransferase (AST), alanine aminotransferase (ALT), alkaline phosphatase (ALP), lactate dehydrogenase (LDH), and total bilirubin (TBIL) levels were measured using commercial kits (Shanghai Enzyme-linked Biotechnology Co., Ltd., Shanghai, China) according to the protocols described by the manufacturer before pharmacokinetic experiments.
The rats were first divided into two groups: i.v. or i.g. administration groups. These two groups were further divided into the following four subgroups (n = 5): soybean oil-treated control rats, CCl4-induced rats, sham-operated control rats, and 5/6 Nx rats. […] Blood samples (200 µL) were collected from the retro-orbital venous plexus into heparinized tubes at 0 (pre-dose), 0.25, 0.5, 0.75, 1, 2, 3, 4, 6, 8, 12, and 24 h after i.g. administration, and at 0 (pre-dose), 0.083, 0.25, 0.5, 0.75, 1, 2, 3, 4, 6, 8, 12, and 24 h after i.v. administration. Plasma samples were separated by centrifugation at 6,000 × g for 5 min at 4°C and stored at −80°C until further analysis using HPLC.
Chromatographic separation was performed using the SinoPak BEH T-C18 column (4.6 mm × 150 mm, 5 µm, Hi-tech Zone, China) at 35°C. A photodiode array detector was set at a wavelength of 254 nm. The mobile phase consisted of 0.1% (vol/vol) formic acid in water (A) and acetonitrile (B). The gradient conditions were as follows: 0–4.0 min, 14%–86% B; 4.0–5.0 min, […]; 5.0–5.7 min, return to 14% B; 5.7–8.0 min, equilibrium. The flow rate was 1.0 mL/min.
Plasma and tissue homogenate samples (100 µL) were mixed with 10 µL of IS (50.0 mg/L) and 200 µL of acetonitrile, followed by vortex-mixing for 3 min. The mixture was centrifuged at 15,000 × g for 15 min at 4°C. Then, 5 µL of the supernatant was analyzed. The urine samples were diluted and directly injected for measurement.
The area under the plasma concentration-time curve from 0 to infinity (AUC0-∞), time to maximum concentration (tmax), Cmax, t1/2, CL, and Vd were calculated by non-compartmental model analysis using the Phoenix 8.1.0 WinNonlin software (Pharsight Corp, Princeton, NJ, USA). The renal clearance (CLr), in vitro hepatic clearance (CLint, in vitro), and bioavailability (F) were calculated using the following equations:
F (%) = Div×AUC0−∞, ig/Dig×AUC0−∞, iv
Atotal is the total cumulative amount excreted in urine over 24 h. D is the administered dose. The scale factor is 4,680 (10^6 cells/kg). All data are expressed as mean ± standard deviation (SD). Statistical analysis was performed using Student’s two-tailed unpaired t-test or nonparametric Mann-Whitney U test with SPSS Statistics 19.0 (SPSS Inc., Chicago, IL, USA). Statistical significance was set at P < 0.05.

[2] = Sprague-Dawley, rat, in vivo, iv
[3] = Sprague-Dawley, rat, in vivo, po, 63 mg/kg

CC(=O)NC[C@H]1CN(c2ccc(N3CCOCC3)c(F)c2)C(=O)O1 [Linezolid]
inhibitor of OATP1B3 (OATP1B3): inhibitor
inhibitor of OAT1 (OAT1): inhibitor
change of cumulative urinary excretion rate ([1]; 5/6 Nx rats vs control, P < 0.05): significantly decreased
change of cumulative urinary excretion rate ([1]; CCl4-induced rats): no significant changes
decrease of CLr in comparison to sham-operated control rats ([1]; Sprague-Dawley, rat, in vivo): 50.0%
decrease of CL in comparison to soybean oil-treated control rats [1, 2]: 27.0%
decrease of CLr in comparison to sham-operated control rats [1, 2]: 66.7%
AUC(0-inf) ([1]; Sprague-Dawley, rat, in vivo, iv, 25 mg/kg): 69.3 ± 8.67 µg·h/mL
clearance ([1]; Sprague-Dawley, rat, in vivo, iv, 25 mg/kg, CL): 6.17 mL/min/kg
Vd ([1]; Sprague-Dawley, rat, in vivo, iv, 25 mg/kg, Vd): 0.63 ± 0.05 L/kg
decrease of CL in comparison to soybean oil-treated control rats ([1]; Sprague-Dawley, rat, in vivo, po): 13.8%
Tmax [1, 3]: 54 ± 8.4 min
tmax [1, 3]: 1.0 h
AUC(0-inf) [1, 3]: 220 ± 27.6 µg·h/mL
CL renal ([1]; Sprague-Dawley, rat, in vivo, po, 63 mg/kg, CLr): 0.333 mL/min/kg
Cmax ([1]; Sprague-Dawley, rat, in vivo, po, 63 mg/kg, Cmax): 35300 ± 1100 ng/mL
half-life ([1]; Sprague-Dawley, rat, in vivo, po, 63 mg/kg, t1/2): 110 ± 16.2 min
